The record followed here is ChEMBL document CHEMBL3286269, “Group A streptococcus inhibitors by high-throughput virtual screening” (2014).

Values after ≈ are worked out from the molar mass of the structure shown.

In this assay the test system is Streptococcus sp. 'group A'. Kind of assay: Antibacterial activity against group A streptococcus MGAS2221 after 12 hrs by microscopic count analysis. Particulars: MGAS2221, 12 h. The class given is functional.
For `O=Cc1cc(Cl)cc(Cl)c1O`, the lowest concentration to inhibit growth (MIC) was 20 µM (≈ 3.82 µg/mL). Then `O=C1NN=CC1CCC/N=C/c1cc(Cl)cc(Cl)c1O` (configuration not stated), with 10 µM (≈ 3.14 µg/mL). To `Oc1c(Cl)cc(Cl)cc1/C=N/CC1CCC(C/N=C/c2cc(Cl)cc(Cl)c2O)CC1` (configuration not stated) belongs 10 µM (≈ 4.88 µg/mL); to `OCC/N=C/c1cc(Cl)cc(Cl)c1O`, 20 µM (≈ 4.68 µg/mL). To `Oc1c(Cl)cc(Cl)cc1/C=N/CC1CCCO1` (configuration not stated) belongs 20 µM (≈ 5.48 µg/mL); to `O=C1NN=CC1CCC/N=C/c1cc(Br)ccc1O` (configuration not stated), 40 µM (≈ 13 µg/mL); to `Cc1ccc([N+](=O)[O-])c(NC(=O)NC(=O)c2c(Cl)cccc2Cl)c1C`, 50 µM (≈ 19.1 µg/mL).
